For one test, the system named is P38. Nature of the test: MAPK signaling in mouse skin tissue, Western blotting: P38. It counts as in vivo. Conditions: hairless mouse; UV+CPT vs UV with acetone only. How it is done: In order to investigate the intracellular mechanism (signaling) related with the inhibition of COX-2 expression by capsiate, Western blotting was carried out for MAPK signaling-related proteins (ERK, p-ERK, p38, p-p38 and JNK, p-JNK) as in Example 2-2, using proteins isolated from the mouse skin tissue.

The subject of test [1] is MMP-2. Nature of the test: MMP-2 mRNA in mouse skin, RT-PCR. It counts as in vivo. Conditions: mouse tissue of Example 5; normalized using GAPDH. How it is done: (§1) mRNA was extracted from the mouse tissue of each test group of Example 5 and the level of expression thereof was evaluated in order to investigate the effect of capsiate on the expression of MMP-2 and MMP-9 induced by angiogenesis and immune response.
(§2) For RNA extraction from the tissue, each mouse tissue was subjected to skin biopsy, quickly frozen in liquid nitrogen and finely ground using a mortar. RNA was extracted from the mouse tissue using Trizol (Invitrogen, USA). PCR (PTC-225 Peltier thermal cycler, MJ Research, USA) was carried out using the RNA as template and using a commercial kit (reverse transcription system, Qiagen, USA). As a result, cDNA for each test group was prepared.
(§3) RT-PCR (Rotor Gene 6 series, Corbett Research, Australia) was carried out using thus prepared cDNA as template and using MMP-2 and MMP-9 primers (Qiagen, USA). The level of mRNA expression for MMP was normalized using GAPDH. The level of expression was compared with that of the non-treated group, which was treated with acetone only.

The subject of test [2] is MMP-2. Briefly: UV-induced MMP-2 mRNA expression, RT-PCR. It counts as cell-based, human. Particulars: HaCaT cells; 10, 25, 50 μM; UV 100 J/m^2; 36 hours. How it is done: The inhibition effect of capsiate on the expression of MMP-2 and MMP-9, which induce angiogenesis, was investigated through measurement of mRNA expression by RT-PCR and protein expression and activity measurement by zymography.
In order to investigate the inhibition effect of capsiate on MMP expression, 5×10^5 HaCaT cells were placed on a 60 mm Petri dish and cultured for 24 hours in DMEM containing 10% FBS. Subsequently, the cells were cultured for 24 hours in DMEM containing 1% FBS until starvation. Then, after treating with capsiate at different concentrations (10 μM, 25 μM, 50 μM) for 30 minutes, followed by washing 3 times with PBS, UV was irradiated at an intensity of 100 J/m^2. Immediately after the UV irradiation, the cells were washed again with PBS and further cultured for 36 hours in DMEM containing 1% FBS, which was treated with capsiate at the same concentration as in the pre-treatment. The degree of intracellular mRNA expression for MMP-2 and MMP-9 was measured by RT-PCR in the same manner as in Example 3. The degree of MMP expression was compared with that of the non-treated group.

For another test, the system named is IL-6. Nature of the test: UV-induced IL-6 mRNA in hairless mouse skin, RT-PCR. It counts as in vivo. Conditions: 200 μL of 1 mM topically 1 hour before UV 5 kJ/m^2 once, 6 hours later. How it is done: In order to investigate the effect of capsiate on the production of IL-6 and TNF-α induced in skin tissue during inflammatory response, the inhibition ability of capsiate against the expression of the pro-inflammatory cytokines was evaluated in animal model as follows. Test groups were as follows: non-treated group—treated with acetone only without UV irradiation; test group A—treated with 200 μL of 1 mM capsiate dissolved in acetone without UV irradiation; UV group—treated with acetone and UV; test group B—treated with 200 μL of 1 mM capsiate dissolved in acetone followed by UV irradiation 1 hour later.
To this end, acetone and capsiate were treated prior to UV irradiation. After treating with UV once at an intensity of 5 kJ/m^2, hairless mouse was euthanized 6 hours later. mRNA was extracted from the mouse tissue obtained by skin biopsy and RT-PCR was carried out as follows. For RNA extraction from the tissue, each mouse tissue obtained by skin biopsy was quickly frozen in liquid nitrogen and ground finely using a mortar. RNA was extracted from the mouse tissue using Trizol (Invitrogen, USA), and PCR (PTC-225 Peltier thermal cycler, MJ Research, USA) was carried out using it as template and using a commercial kit (reverse transcription system, Qiagen, USA). As a result, cDNA was prepared from each group. […]

Another test concerns VEGF. Briefly: UV-induced VEGF expression, immunohistochemical staining. It counts as cell-based, human. Particulars: HaCaT cells; 25 μM; UV 100 J/m^2; 24 hours. How it is done:
First, the inhibition effect of capsiate on the expression of VEGF, the typical intracellular angiogenesis factor, was evaluated by immunohistochemical staining in order to investigate the inhibition effect of capsiate on angiogenesis.
HaCaT cells were placed on a 14 mm culture slide and cultured for 24 hours in DMEM containing 10% FBS. Subsequently, the cells were cultured for 24 hours in DMEM containing 1% FBS until starvation. Then, after treating with 25 μM capsiate for 30 minutes, followed by washing 3 times with PBS, UV was irradiated at an intensity of 100 J/m^2. Immediately after the UV irradiation, the cells were washed again with PBS and further cultured for 24 hours in DMEM containing 1% FBS, which was treated with capsiate at the same concentration as in the pre-treatment. The cells were fixed for 5 minutes using methanol and immunohistochemical staining was carried out in the same manner as in Example 2-3. For VEGF detection, rabbit anti-VEGF IgG antibody (Santa Cruz, USA) and Alexa 488-labeled anti-rabbit-IgG secondary antibody (Invitrogen, USA) were used.

For a further test, the system named is MMP-9. Briefly: MMP-9 mRNA in mouse skin, RT-PCR. It counts as in vivo. Particulars: mouse tissue of Example 5; normalized using GAPDH. How it is done:
as §1, §2, §3

Each structure is given as a SMILES string.

Regarding `COc1cc(COC(=O)CCCC/C=C/C(C)C)ccc1O` [capsiate], the “P38 (phosphorylation) in mouse skin tissue” value with P38 is listed as “no significant difference”. Also, the “expression of MMP-2 (mRNA) in mouse skin tissue” value with MMP-2 [1] is “decreased”. For the same compound, the “UV-induced mRNA expression of MMP-2” value in the test with MMP-2 [2] is listed as “decreased”. Moreover, in the test on IL-6, the “UV-induced expression of IL-6 (mRNA) in skin tissue” value was “decrease”. In the test on VEGF, the “UV-induced VEGF expression in the cytoplasm” value is “decreased”. Also, the “expression of MMP-9 (mRNA) in mouse skin tissue” value in the test with MMP-9 is listed as “decreased”.

(Values after US9572786B2, “Use of capsiate or dihydrocapsidate” (Catholic University Industry Academy Cooperation Foundation, priority 2007, dated 2017).)
